{
  "source": "patent US20160106773A1",
  "about": "“TREATMENT FOR DISEASES RELYING ON DISCOVERY THAT THIOREDOXIN MEDIATES NITRIC OXIDE RELEASE IN CELLS” (Duke University, priority 2008, published 2016)",
  "format_in_all_cases": "in vivo",
  "key": {"[1]": {"test_system": "person with rhematoid arthritis", "test": "Working Example VII: patient with rheumatoid arthritis", "settings": "combination: deprenyl 10 mg plus ascorbate 1 gm plus ISDN 5 mg PO TID or plus cysteine or NaHS (final concentration in blood 10 μM-1 mM)", "protocol": "A person with rhematoid arthritis is administered deprenyl 10 mg plus ascorbate 1 gm plus ISDN 5 mg PO TID or plus cysteine or NaHS (final concentration in blood of 10 μM-1 mM). Progression of the disease slows."}, "[2]": {"test_system": "person with recurrent restenosis", "test": "Working Example II: patient with recurrent restenosis given arsenic trioxide plus nitrate", "settings": "combination: 0.15 mg/kg/day IV arsenic trioxide and either 60 mg isosorbide mononitrate per day or nitroglycerin patch 1-2 inches up to 4 times a day; after one month", "protocol": "A person with recurrent restenosis is give 0.15 mg/kg/day IV arsenic trioxide and either 60 mg isosorbide mononitrate per day or nitroglycerin patch of 1-2 inches up to 4 times a day."}, "[3]": {"test_system": "person with glioblastoma", "test": "Working Example XI: patient with glioblastoma", "settings": "oral capsule: 6 mg auranofin and 50 mg isosorbide dinitrate, or 6 mg auranofin and 150 mg/m^2 BCNU, or 2.5 mg auranofin and 2 gm L-BSO every 6 hours", "protocol": "A person with glioblastoma is given orally a capsule containing 6 mg auranofin and 50 mg isosorbide dinitrate or 6 mg auranofin and 150 mg/m^2 BCNU or 2.5 mg auranofin and 2 gm L-BSO given every 6 hours. Regression in the cancer occurs."}, "[4]": {"test_system": "65 year with Alzheimers", "test": "Working Example VI: patient with Alzheimers", "settings": "combination: deprenyl 15 mg and S-nitrosoglutathione 10 mg po TID", "protocol": "A 65 year with Alzheimers is administered deprenyl 15 mg and S-nitrosoglutathione 10 mg po TID. Blood pressure is unaltered but memory improves."}, "[5]": {"test_system": "person with large cell lymphoma disease", "test": "Working Example I: patient with large cell lymphoma given auranofin plus isosorbide dinitrate", "settings": "combination: 6 mg auranofin and 50 mg isosorbide dinitrate by mouth once a day for a month; patient not responding to treatment", "protocol": "A person with large cell lymphoma disease who was not responding to treatment was given by mouth 6 mg auranofin and 50 mg isosorbide dinitrate once a day for a month. Tumor burden decreases as determined by CAT scan."}, "[6]": {"test_system": "with muscular dystrophy", "test": "Working Example V: patient with muscular dystrophy", "settings": "combination: deprenyl 10 mg/day plus isosorbide dinitrate (ISDN) 10 mg/day", "protocol": "A person with muscular dystrophy is given deprenyl 10 mg/day plus isosorbide dinitrate (ISDN) 10 mg/day and weakness improves."}, "[7]": {"test_system": "person with central core disease, malignant hyperthermia (MH)", "test": "Working Example VIII: patient with central core disease and malignant hyperthermia", "settings": "combination: deprenyl 10 mg and ISDN 5 mg po tid", "protocol": "A person with central core disease undergoes operation for pancreatic cancer and course complicated by malignant hyperthermia (MH). The patient is administered deprenyl 10 mg and ISDN 5 mg po tid with acute relief of MH and improvement in muscle function over time."}, "[8]": {"test_system": "person with septic shock", "test": "Working Example IX: patient with septic shock", "settings": "combination: gene therapy for TrxIP and 15 mg/kg intravenous L-NMMA (2 mg/kg IV TID)", "protocol": "A person with septic shock is given gene therapy for TrxIP and 15 mg/kg intravenous L-NMMA (2 mg/kg IV TID)."}, "[9]": {"test_system": "person with pancreatic cancer", "test": "Working Example X: patient with pancreatic cancer", "settings": "combination: gene therapy for TrxIP and 10 gms sodium ascorbate by infusion per day", "excerpt": "A person with pancreatic cancer is given gene therapy for TrxIP and by infusion per day 10 gms of sodium ascorbate. The cancer regresses."}, "[10]": {"test_system": "person with Parkinson's disease", "test": "Working Example III: patient with Parkinson's disease", "settings": "combination: orally 300 mg N-acetylcysteine and 0.3 mg aptamer directed at Parkin by injection into spinal fluid, 30 days", "protocol": "A person with Parkinson's disease is given orally 300 mg N-acetylcysteine and 0.3 mg dose by injection into spinal fluid (range may be 10 μg-2 mg of body weight) of aptamer directed at Parkin for 30 days. Movement improves."}, "[11]": {"test_system": "person with Alzheimer's", "test": "Working Example IV: patient with Alzheimer's", "settings": "combination: NAC 300 mg/day, ascorbate 1 gm/day and minocycline 100 mg TID", "protocol": "A person with Alzheimer's is then started on combination of NAC (300 mg/day), ascorbate 1 gm/day and minocycline 100 mg TID and memory improves."}},
  "data": [
    {"compound": "[Na+].[SH-]", "note": "[NaHS]", "values": [
      {"measurement": "Progression of the disease", "setting": "[1]", "result": "slows"}
    ]},
    {"compound": "O=[N+]([O-])OCC(CO[N+](=O)[O-])O[N+](=O)[O-]", "note": "[nitroglycerin]", "values": [
      {"measurement": "disease (restenosis)", "setting": "[2]", "result": "abates"},
      {"measurement": "incidence of thrombotic complication", "setting": "[2]", "result": "disappears"},
      {"measurement": "restenosis recurrence", "setting": "[2]", "result": "does not reoccur"}
    ]},
    {"compound": "O=NN(CCCl)C(=O)NCCCl", "note": "[BCNU, carmustine]", "values": [
      {"measurement": "Regression in the cancer", "setting": "[3]", "result": "Regression"}
    ]},
    {"compound": "N[C@@H](CCC(=O)N[C@@H](CSN=O)C(=O)NCC(=O)O)C(=O)O", "note": "[S-nitrosoglutathione]", "values": [
      {"measurement": "memory", "setting": "[4]", "result": "improves"}
    ]},
    {"compound": "CC(=O)OC[C@H]1O[C@@H]([S-])[C@H](OC(C)=O)[C@@H](OC(C)=O)[C@@H]1OC(C)=O.CCP(CC)CC.[Au+]", "note": "[auranofin]", "values": [
      {"measurement": "Tumor burden as determined by CAT scan", "setting": "[5]", "result": "decreases"},
      {"measurement": "Regression in the cancer", "setting": "[3]", "result": "Regression"}
    ]},
    {"compound": "C#CCN(C)[C@H](C)Cc1ccccc1", "note": "[deprenyl]", "values": [
      {"measurement": "weakness", "setting": "[6]", "result": "improves"},
      {"measurement": "Blood pressure", "setting": "[4]", "result": "unaltered"},
      {"measurement": "memory", "setting": "[4]", "result": "improves"},
      {"measurement": "Progression of the disease", "setting": "[1]", "result": "slows"},
      {"measurement": "muscle function over time", "setting": "[7]", "result": "improvement"},
      {"measurement": "relief of MH (malignant hyperthermia)", "setting": "[7]", "result": "acute relief"}
    ]},
    {"compound": "arsenic trioxide", "values": [
      {"measurement": "disease (restenosis)", "setting": "[2]", "result": "abates"},
      {"measurement": "incidence of thrombotic complication", "setting": "[2]", "result": "disappears"},
      {"measurement": "restenosis recurrence", "setting": "[2]", "result": "does not reoccur"}
    ]},
    {"compound": "O=[N+]([O-])O[C@H]1CO[C@H]2[C@@H]1OC[C@H]2O[N+](=O)[O-]", "note": "[isosorbide dinitrate]", "values": [
      {"measurement": "Tumor burden as determined by CAT scan", "setting": "[5]", "result": "decreases"},
      {"measurement": "weakness", "setting": "[6]", "result": "improves"},
      {"measurement": "Progression of the disease", "setting": "[1]", "result": "slows"},
      {"measurement": "muscle function over time", "setting": "[7]", "result": "improvement"},
      {"measurement": "relief of MH (malignant hyperthermia)", "setting": "[7]", "result": "acute relief"},
      {"measurement": "Regression in the cancer", "setting": "[3]", "result": "Regression"}
    ]},
    {"compound": "CCCCS(=N)(=O)CCC(N)C(=O)O", "note": "[L-BSO, L-buthionine-SR-sulfoximine]", "values": [
      {"measurement": "Regression in the cancer", "setting": "[3]", "result": "Regression"}
    ]},
    {"compound": "CC(=O)O.CNC(=N)NCCC[C@H](N)C(=O)O", "note": "[L-NMMA, Ng-monomethyl-L-arginine, monoacetate salt]", "values": [
      {"measurement": "Blood pressure", "setting": "[8]", "result": "increases and stabilizes"}
    ]},
    {"compound": "O=[N+]([O-])O[C@@H]1CO[C@H]2[C@@H]1OC[C@@H]2O", "note": "[isosorbide mononitrate]", "values": [
      {"measurement": "disease (restenosis)", "setting": "[2]", "result": "abates"},
      {"measurement": "incidence of thrombotic complication", "setting": "[2]", "result": "disappears"},
      {"measurement": "restenosis recurrence", "setting": "[2]", "result": "does not reoccur"}
    ]},
    {"compound": "O=C1O[C@H]([C@@H](O)CO)C([O-])=C1O.[Na+]", "note": "[sodium ascorbate]", "values": [
      {"measurement": "cancer regression", "setting": "[9]", "result": "regresses"}
    ]},
    {"compound": "CC(=O)N[C@@H](CS)C(=O)O", "note": "[N-acetylcysteine]", "values": [
      {"measurement": "Movement", "setting": "[10]", "result": "improves"},
      {"measurement": "memory", "setting": "[11]", "result": "improves"}
    ]},
    {"compound": "N[C@@H](CS)C(=O)O", "note": "[cysteine]", "values": [
      {"measurement": "Progression of the disease", "setting": "[1]", "result": "slows"}
    ]}
  ]
}
